# Columns and labels:
# [1] = Free radical scavenging activity by DPPH method; type: biochemical; settings: 30 minutes, room temperature
# Experimental: Anti-oxidative effect of Osteomeles […] extract, fractions thereof obtained from each of hexane layer, ethyl acetate layer, butanol layer and water layer of the extract was investigated in vitro. Free radical scavenging activity of each sample was measured by DPPH method (Brand-Williams W, et al., Technology, 1995, 28, 25-30). Samples were dissolved in ethanol, and diluted at different concentrations. Each of the diluted sample was distributed in 96 well plate (20 μl/well). […] DPPH solution dissolved in ethanol was added to each well by 180 μl to make the final volume of the reaction solution 200 μl, followed by reaction at room temperature for 30 minutes. Then, OD517 was measured with ELISA reader (Bio-TEK, Synergy HT, USA) to investigate absorbance changes by reduction of DPPH. Free radical scavenging activity was presented as RC50, which is the amount of sample (μg/ml) needed for the reduction of 50% DPPH. For the positive control, butylated hydroxytoluene (BHT) was used. Anti-oxidative effect of Osteomeles […] extract was measured in vitro by the same manner as described above and the results are shown in Table 7.
# [2] = tested on: type II diabetes animal model, Spontaneous Diabetic Torii (SDT) rat; test: Type II diabetes animal model, SDT rat; type: in vivo
# From the text: To investigate the preventive and therapeutic effect of Osteomeles schwerinae on diabetic complications in type II diabetes animal model, the extract was orally administered to Spontaneous Diabetic Torii (SDT) rats for 16 weeks, followed by analysis of the effect. Spontaneous Diabetic Torii (SDT) rats, the type II diabetes animal model, were used as test animals. Particularly, male SDT rats at 10 weeks (CLEA Japan Inc., Tokyo, Japan) were adapted for 1 week, and then raised for 15 weeks until high blood glucose was induced up to the level of 300 mg/dl. Feeds and water were provided freely. 15 weeks later, the rats were divided into 5 groups, 8 rats per each group. As test drugs, Osteomeles schwerinae extract (Os-100, OS-250) and metformin (MET, control drug) were orally administered once a day. The experimental groups were as follows: the normal group (NOR), the diabetes group (DM), the diabetes group treated with 350 mg/kg of metformin (MET), the diabetes group treated with 100 mg/kg of Osteomeles schwerinae extract (OS-100), and the diabetes group treated with 250 mg/kg of Osteomeles schwerinae extract (OS-250). Each group was orally administered with the test drug once a day for 16 weeks. Urine was taken for 24 hours before autopsy. The organs extracted from the autopsy were stored at −80° C.
# The test animals were anesthetized by peritoneally injecting pentobarbital sodium (25 mg/kg body weight). Heart was extracted by opening abdominal cavity and thoracic cavity. 50 mg/ml of fluorescein-dextran (2×10^6 molecular weight) dissolved in 1 ml/ml sterilized PBS was injected in the left ventricle. 10 minutes later, eye balls were extracted. Retina was separated from eyecup of the left eye ball. The isolated retina was placed on the slide, followed by mounting with aqueous mounting medium. The slide was completely dried and observed under fluorescent microscope. Fluorescent material was injected in retinal blood vessel, followed by observation. […] To investigate blood-retinal barrier damage, outflow of the fluorescent material was observed. […] However, the fluorescent material was leaked out of blood vessels, indicating blood-retinal barrier damage, in multiple animals of the diabetes group (arrow), and non-perfusion area (arrow) caused by the blood vessel being narrow was also observed in some of those animals in the diabetes group.
# Lens was separated and lens opacity was examined to investigate the preventive effect of the extract on lens opacity. Eye balls were extracted during autopsy, which were placed in PBS (phosphate buffered saline, pH 7.4). Lens was carefully separated from the eyeball by posterior approach. Then, iris and zonule were eliminated. The lens was photographed under optical microscope equipped with CCD camera (BX51, Olympus, Japan). Lens opacity was measured with the photographed lens images by using Scion image analyzer (Scion Corporation, USA). The results of investigation of lens opacity with the lens isolated from the eye ball extracted during autopsy are shown in FIG. 39 and in FIG. 40. […] Incidence rate of cataract and lens opacity were quantitatively analyzed.
# Lens opacity is caused by the degeneration of lens fiber composing lens. Thus, to investigate the effect of Osteomeles schwerinae extract on lens fiber degeneration, the effect of Osteomeles schwerinae extract on lens fiber degeneration in SDT type II diabetes rat was analyzed. To observe the degeneration of lens fiber induced by cataract, lens was fixed in 10% neutralized formalin (Microme, USA) for 24 hours, followed by the conventional tissue treatment. After paraffin embedding, the embedded block was cut into 2 μm thick sections, followed by hydration. The sections were stained with rhodamine-labeled wheat-germ agglutinin (WGA, Vector Laboratory, USA), and observed under fluorescent microscope (BX51, Olympus, Japan). To investigate the preventive effect on lens fiber degeneration, lens was stained and observed. […]
# [3] = tested on: type II diabetes animal model, Spontaneous Diabetic Torii (SDT) rat; test: Type II diabetes animal model, SDT rat; type: in vivo; settings: oral once a day 16 weeks; extract 100 and 350 mg/kg as printed; metformin 350 mg/kg; vs diabetes group
SMILES,"RC50 (μg/ml), amount of sample needed for the reduction of 50% DPPH [1] [µg/mL]","blood-retinal barrier damage, outflow of the fluorescent material ([2]; 16 weeks)","pericyte loss, acellular capillary formation and closed vessels ([2]; 16 weeks)","GFAP positive reaction, Muller cell activation ([2]; 16 weeks, vs diabetes group)","aldose reductase (AR) activity in lens ([2]; 16 weeks, extract 250 mg/ml as printed, metformin, vs diabetes group)","lens fiber degeneration, swelling and vesicle formation ([2]; 16 weeks, extract high concentration, metformin 350 mg/kg)","retinal angiogenesis, fluorescein-dextran ([2]; 16 weeks, extract low and high concentration, metformin 350 mg/kg)","podocyte loss, synaptopodin staining ([2]; 16 weeks, extract low and high concentration, metformin 350 mg/kg, vs diabetes group)","glomerular hypertrophy and mesangial matrix enlargement, PAS staining ([2]; oral once a day 16 weeks, extract 100 and 250 mg/kg, metformin 350 mg/kg)",level of AGEs in urine [3]
"Cc1cc(C(C)(C)C)c(O)c(C(C)(C)C)c1 [BHT, butylated hydroxytoluene]",26.75 ± 10.75,–,–,–,–,–,–,–,–,–
CN(C)C(=N)N=C(N)N [metformin],–,observed just barely,significantly inhibited,rather decreased,AR activity was significantly reduced,improving effect was hardly observed,Angiogenesis was also observed,no significant difference,"morphological changes were reduced, which was not significant",not significantly changed

# — patent US8784911B2, “Compositions for treatment and prevention of diabetic complications using Osteomeles schwerinae” (Korea Institute of Oriental Medicine, priority 2009, dated 2014)
